Laboratory results: patent US20220242827A1, “PHENYLMETHYLPYRAZOLONE COMPOUND HAVING A NOVEL CRYSTAL FORM, AND METHOD FOR PRODUCING SAME” (SIA EMTEKO HOLDING, priority 2019, published 2022)
Converted amounts (≈) assume the structure as drawn.

How the values were obtained:
Format in all cases: physicochemical
[1] = Storage stability in climate chamber at 25° C. and 60% relative humidity for 24 months; conditions: for pH: normalization 4.5-5.5; for Quantification: normalization more than 99.0; for Impurity 1: normalization not more than 0.1%; for Sum of impurities: normalization not more than 0.3%; for stability on storage (content of the basic substance, content of impurities, pH): 60% humidity
Method: The improved stability of the resulting polymorphic form was confirmed by experiments in a climate chamber at 25° C. and 60% humidity.
Comparison of Critical Quality Indicators of Known and Novel Polymorphic Forms of FMP After 24 Months of Storage at 25° C. and 60% Relative Humidity

[2] = Solubility in water
Method: The solubility of the obtained samples was checked by dissolving in water with vigorous stirring for 30 minutes at 25° C.

[3] = Electrostatic adhesion model experiment in 316L stainless steel tank; conditions: for surface area of the tank covered with the FMP crystals: 316L stainless steel tank, after thorough mixing and release
Method: The following model experiment was performed to test the ability of electrostatic adhesion of the new polymorphic form. The FMP sample was placed in a 316L stainless steel tank, similar to the steel used to make working parts of industrial pharmaceutical equipment. After thorough mixing in the tank, the PMF was released from it and the surface area of the tank covered with the FMP crystals was measured. For the known polymorphic form, this figure was 19.5%, for the new form—12.8%, which is about one third less.

[4] = 24 months at 25° C. and 60% relative humidity

| Description ([1]; 0 months) | pH ([1]; 0 months) | Quantification ([1]; 0 months) [%] | Impurity 1 ([1]; 0 months) [%] | Sum of impurities ([1]; 0 months) [%] | Description [1, 4] | pH [1, 4] | Quantification [1, 4] [%] | Impurity 1 [1, 4] [%] | Sum of impurities [1, 4] [%] | stability on storage (content of the basic substance, content of impurities, pH) ([1]; 24 months, 25° C.) | stability on storage (content of the basic substance, content of impurities, pH) ([1]; 24 months, 25° C., listed as resulting polymorphic form) | rate of impurity formation ([1]; 24 months, 25° C., 60% relative humidity, versus known form) | solubility (comparison among the samples) ([2]; among samples #1 to #6) | solubility at 30 min ([2]; water, 25 °C, thermodynamic from solid, dissolving in water with vigorous stirring for 30 minutes at 25° C.) [µg/mL] | surface area of the tank covered with the FMP crystals [3] [%] | electrostatic index (comparison among the samples) ([3]; among samples #1 to #6) | solubility in water ([2]; dissolving in water with vigorous stirring for 30 minutes at 25° C., listed as known forms) | surface area of the tank covered with the FMP crystals ([3]; listed as known polymorphic form) [%] | SMILES |
| --- | --- | --- | --- | --- | --- | --- | --- | --- | --- | --- | --- | --- | --- | --- | --- | --- | --- | --- | --- |
| White | 4.8 | 99.8 | 0.03 | 0.09 | White | 4.8 | 99.7 | 0.04 | 0.10 | more stable | did not change its key characteristics | much lower | best | 300 (≈ 1720 µM) | 12.8 | best | – | – | CC1=NN(c2ccccc2)C(=O)C1 [A new form of FMP, 1-phenyl-3-methyl-5-pyrazolone] |
| White | 4.7 | 99.8 | 0.02 | 0.07 | White | 4.6 | 99.6 | 0.08 | 0.18 | – | – | – | – | – | – | – | less than 0.2 mg/ml | 19.5 | CC1=NN(c2ccccc2)C(=O)C1 [Known form of FMP, 1-phenyl-3-methyl-5-pyrazolone, reference compound] |
